The source of these data is patent US10766912B2 (priority 2017, dated 2020).

As a reminder, the CC50 is the concentration giving 50% cytotoxicity.

The nature of data set [1]: Assay Example 5: distribution in mouse plasma and liver tissue. In kind it is in vivo. The conditions noted are these: 10 mg/kg intragastric; for Kp at 0.5 h / Kp at 3 h / Kp at 8 h: male, oral, liver/plasma, read-out: Ratio (L/P). Here is the method: Eighteen male mice were randomly divided into two groups, fasted (free access to water) overnight, and then intragastrically administered with 10 mg/kg of Compound 1a and Compound 6b, respectively. The subject animals were sacrificed by bloodletting at 0.5 h, 3 h and 8 h after administration. About 1 mL of blood was taken, and anticoagulated with EDTA-K2. The blood samples were immediately placed in ice, and then transferred within 30 min to centrifuge and separate plasma at 4° C. and 4,000 rpm for 10 min. Meanwhile, the whole liver was taken out at the various time points, rinsed with ice-cold physiological saline, blotted dry, weighed, and prepared into a homogenate with physiological saline (W/V=1:5). All plasma and liver homogenates were collected and then immediately stored at −20° C. for testing.
The mice can be fed at 4 h after administration.
After being completely melted, all the samples were vortexed to mix evenly. 50 μL of the samples were pipetted into a 1.5 mL centrifuge tube respectively and then 200 μL of IS-D (20 ng/ml diazepam acetonitrile) solution was added to each sample (200 μL of acetonitrile was added to the blank sample). The samples were vortexed for 10 min and then centrifuged at 12,000 rpm and 4° C. for 10 min. After 80 μL of pure water was added to a 96-well plate, 80 μL of the supernatants were pipetted respectively from the centrifuge tubes to the 96-well plate, vortexed for 3 min, and then kept at 4° C. until LC-MS/MS injection analysis.

Data set [2] deals with HCV GT1b/5a NS5A chimeric replicon. As to the kind of experiment: Assay Example 2: activity against GT1b/5a NS5A chimeric replicon. In kind it is cell-based. The conditions noted are these: Hepatitis C virus, Huh-7, 72 h, read-out: EC50 Value GT1b/5a-NS5A-wt. As for the experimental part:
Cells: Huh-7 cells are liver cancer cell strains (from AppTec, USA), HCV GT1a and GT1b wild type (wt) replicons, GT1b/3a, GT1b/4a, GT1b/5a and GT1b/6a NS5A chimeric replicons.
Treatment of Compound: According to the assay final concentrations of the compounds in Table 5, DMSO stock solutions of the compounds were diluted and then added to a 96-well assay plate. The final concentration of DMSO was 0.5%.
(§1) The preparation of cells: After replicon plasmid DNA was linearized with a corresponding restriction enzyme, the DNA was transcribed into RNA by using T7 RNA polymerase. Replicon RNA prepared by transcription in vitro was transfected into Huh-7 cells by electroporation. Transfected cells were seeded at a density of 10,000 cells per well into the 96-well assay plate containing the diluted compounds, and then placed in a 37° C. incubator with 5% CO2 and cultured for 3 days.
Drug activity assay: Luminescence signal value (RLU) was detected with Envision within 15 minutes using the luciferase assay reagent Britelite plus, and the original data (RLU) was used for the calculation of the activity of the compounds.
The cytotoxicity of the compounds was calculated by using the equation below: Cell Viability %=(CPD−HPE)/(ZPE−HPE)×100%* The activity of the compounds was calculated by using the equation below: Inhibition %=(ZPE−CPD)/(ZPE−HPE)×100%*
The cell viability percentages (Viability %) and the inhibition percentages (Inhibition %) were imported into GraphPad Prism software, respectively, and curves were fitted by using nonlinear regression method to obtain the corresponding curves of the compounds, and the cytotoxicity (CC50) thereof and the inhibitory activity (EC50) values against the HCV replicon thereof.

The nature of data set [3]: Assay Example 3: parallel cytotoxicity assay (alamarBlue) without viral infection. In kind it is cell-based. The conditions noted are these: human, Huh7.5.1 cells without viral infection, no viral infection, read-out: CC50 Value HCVcc. As for the experimental part: Cells: Huh7.5.1 cells and hepatitis C virus HCVcc (GT2a, JFH-1) infection system.
Treatment of Compound: According to the assay final concentrations of the compounds in Table 6, DMSO stock solutions of the compounds were diluted and then added to a 96-well assay plate. The final concentration of DMSO was 0.5%.
Viral infection: Huh7.5.1 cells were seeded in a 96-well cell culture plate, and the cells were cultured overnight at 37° C. in an incubator with 5% CO2 for later use. The compound and the HCVcc virus solution (MOI=0.1) were simultaneously added to the cells, and the virus infection was cultured for 3 days. Parallel cytotoxicity assay was identical to the method for the inhibition of the virus but without viral infection.
Cell viability assay: Cell viability was detected by the addition of alamarBlue assay reagent. The original data (RFU) was used for the calculation of the cytotoxicity of the compounds.
The cytotoxicity of the compounds was calculated by using the equation below: Cell Viability %=CPD/CC×100%*
The cell viability percentages (Cell Viability %) and the compound activity percentages (Inhibition %) were imported into GraphPad Prism software, respectively, and curves were fitted by using nonlinear regression method to obtain the corresponding curves of the compounds, and the cytotoxicity (CC50) thereof and inhibitory activity (EC50) values against the HCV replicon thereof.
(The colour change of resazurin is a common sign of viable cells or microbes.)

Data set [4] deals with HCV GT1a wild-type replicon. As to the kind of experiment: Assay Example 6: drug resistance, activity against HCV GT1a wild-type replicon. In kind it is cell-based. The conditions noted are these: Hepatitis C virus, 72 h, Huh-7 cells, transient transfection, 3 days, read-out: GT1a-wt EC50 value. Here is the method:
Cells: Huh-7 cells are liver cancer cell strains (from AppTec, USA), HCVGT1a wild-type replicon and GT1a-NS5A-Y93H and GT1a-NS5A-L31V mutant replicons
Treatment of Compound: According to the assay final concentrations of the compounds in Table 11, DMSO stock solutions of the compounds were diluted and then added to a 96-well assay plate. The final concentration of DMSO was 0.5%.
as §1
Compound activity assay: Luminescence signal value (RLU) was detected with Envision within 5 minutes by using the luciferase assay reagent Britelite plus, and the original data (RLU) was used for the calculation of the activity of the compounds.
The activity of the compounds was calculated by using the equation below: Inhibition %=(CPD−ZPE)/(HPE−ZPE)×100%*
The compound activity percentages (Inhibition %) were imported into GraphPad Prism software, and curves were fitted by using nonlinear regression method to obtain the corresponding curves of the compounds and the inhibitory activity (EC50) values against the HCV replicon thereof.
(A replicon is a self-replicating genome or part of one, used to study replication in cells.)

Bounds are passed on as bounds.

Regarding `COC(=O)N[C@H](C(=O)N1CCC[C@H]1C(=O)Nc1ccc([C@@H]2CC[C@@H](c3ccc(NC(=O)[C@@H]4CCCN4C(=O)[C@@H](NC(=O)OC)[C@@H](C)OC)cc3)N2c2cc(F)c(N3CC[Si](C)(C)CC3)c(F)c2)cc1)[C@@H](C)OC` [Compound 1a, Methyl ((2S,2′S,3R,3′R)-((2S,2′S)-(((((2S,5S)-1-(4-(4,4-dimethylazasilinan-1-yl)-3,5-difluorophenyl)pyrrolidin-2,5-diyl)bis(4,1-phenylene))bis(azanediyl))bis(carbonyl))bis(pyrrolidin-2,1-diyl))bis(3-methoxy-1-oxobutan-1,2-diyl))dicarbamate], in data set [1] (0.5 h), the Liver concentration amounted to 337 ± 33.1, the Plasma concentration was 139 ± 16.9 and the Kp at 0.5 h came to 2.43. Further, in data set [1] (3 h), the Liver concentration amounted to 2644 ± 147.3, the Plasma concentration stood at 384 ± 81 and the Kp at 3 h was found to be 6.89. Besides, in data set [1] (8 h), the Liver concentration came out at 334 ± 73.9, the Plasma concentration is 59 ± 7.8 and the Kp at 8 h was 5.67. Besides, the EC50 in data set [2] amounted to 1.62 pM. In addition, the half-maximal cytotoxic concentration (CC50) at 3 days in data set [3] is > 100 pM.
Consider `COC(=O)N[C@H](C(=O)N1CCC[C@H]1C(=O)Nc1ccc([C@H]2CC[C@H](c3ccc4nc([C@@H]5CCCN5C(=O)[C@@H](NC(=O)OC)[C@@H](C)OC)[nH]c4c3)N2c2cc(F)c(N3CC[Si](C)(C)CC3)c(F)c2)cc1)[C@@H](C)OC` [Compound 6b], for which, in data set [1] (0.5 h), the Liver concentration came out at 401 ± 116, the Plasma concentration is listed as 226 ± 66 and the Kp at 0.5 h came to 1.78. For the same compound, in data set [1] (3 h), the Liver concentration was found to be 960 ± 530, the Plasma concentration was found to be 464 ± 363.3 and the Kp at 3 h is 2.07. Moreover, in data set [1] (8 h), the Liver concentration was 18 ± 1, the Plasma concentration was 10 ± 5.8 and the Kp at 8 h was 1.76. Moreover, the EC50 in data set [2] is 4.32 pM. In addition, the EC50 in data set [4] was 2.2 pM. The 50% cytotoxic concentration (CC50) at 3 days in data set [3] is > 100 pM.
